According to PubChem BioAssay (NCI):
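Assay format: 96-well plates, 48-hour exposure. GI50: concentration for 50% inhibition of growth. TGI: concentration producing complete growth inhibition.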

Experiments:
Assay in all cases: growth of human tumour cells (NCI), 48 h
786-0 renal = system: 786-0 renal
A498 renal = system: A498 renal
A549 NSCLC = system: A549 NSCLC
ACHN renal = system: ACHN renal
BT-549 breast = system: BT-549 breast
CAKI-1 renal = system: CAKI-1 renal
CCRF-CEM leukemia = system: CCRF-CEM leukemia
COLO 205 colon = system: COLO 205 colon
DU-145 prostate = system: DU-145 prostate
EKVX NSCLC = system: EKVX NSCLC
HCC-2998 colon = system: HCC-2998 colon
HCT-116 colon = system: HCT-116 colon
HCT-15 colon = system: HCT-15 colon
HL-60(TB) leukemia = system: HL-60(TB) leukemia
HOP-62 NSCLC = system: HOP-62 NSCLC
HOP-92 NSCLC = system: HOP-92 NSCLC
HS 578T breast = system: HS 578T breast
HT29 colon = system: HT29 colon
IGROV1 ovarian = system: IGROV1 ovarian
K-562 leukemia = system: K-562 leukemia
KM12 colon = system: KM12 colon
LOX IMVI melanoma = system: LOX IMVI melanoma
M14 melanoma = system: M14 melanoma
MALME-3M melanoma = system: MALME-3M melanoma
MCF7 breast = system: MCF7 breast
MDA-MB-231 breast = system: MDA-MB-231 breast
MDA-MB-435 = system: MDA-MB-435
MDA-MB-468 breast = system: MDA-MB-468 breast
MOLT-4 leukemia = system: MOLT-4 leukemia
NCI-H226 lung = system: NCI-H226 lung

Structure (SMILES): O=C(CNc1nc(-c2ccccc2)cs1)Nc1ccc([N+](=O)[O-])cc1Cl
- GI50 (786-0 renal): 3.3 µM
- TGI (786-0 renal): 13.2 µM
- GI50 (A498 renal): 7.11 µM
- TGI (A498 renal): 20.1 µM
- GI50 (A549 NSCLC): 6.05 µM
- TGI (A549 NSCLC): 19 µM
- GI50 (ACHN renal): 5.51 µM
- TGI (ACHN renal): 18.2 µM
- GI50 (BT-549 breast): 2.29 µM
- TGI (BT-549 breast): 7.66 µM
- GI50 (CAKI-1 renal): 3.34 µM
- TGI (CAKI-1 renal): 14.5 µM
- GI50 (CCRF-CEM leukemia): 3.05 µM
- TGI (CCRF-CEM leukemia): 12.2 µM
- GI50 (COLO 205 colon): 11.5 µM
- TGI (COLO 205 colon): 23.7 µM
- GI50 (DU-145 prostate): 10.6 µM
- TGI (DU-145 prostate): 22.5 µM
- GI50 (EKVX NSCLC): 3.44 µM
- TGI (EKVX NSCLC): 14.3 µM
- GI50 (HCC-2998 colon): 6.94 µM
- TGI (HCC-2998 colon): 19.7 µM
- GI50 (HCT-116 colon): 3.36 µM
- TGI (HCT-116 colon): 12.6 µM
- GI50 (HCT-15 colon): 3.34 µM
- TGI (HCT-15 colon): 12.8 µM
- GI50 (HL-60(TB) leukemia): 2.8 µM
- TGI (HL-60(TB) leukemia): 11 µM
- GI50 (HOP-62 NSCLC): 7.02 µM
- TGI (HOP-62 NSCLC): 20 µM
- GI50 (HOP-92 NSCLC): 4.28 µM
- TGI (HOP-92 NSCLC): 16.7 µM
- GI50 (HS 578T breast): 3.74 µM
- TGI (HS 578T breast): 15.1 µM
- GI50 (HT29 colon): 7.63 µM
- TGI (HT29 colon): 20.4 µM
- GI50 (IGROV1 ovarian): 4.29 µM
- TGI (IGROV1 ovarian): 15.5 µM
- GI50 (K-562 leukemia): 3.42 µM
- TGI (K-562 leukemia): 13.9 µM
- GI50 (KM12 colon): 4.17 µM
- TGI (KM12 colon): 14.9 µM
- GI50 (LOX IMVI melanoma): 2.96 µM
- TGI (LOX IMVI melanoma): 11.7 µM
- GI50 (M14 melanoma): 3.6 µM
- TGI (M14 melanoma): 13.5 µM
- GI50 (MALME-3M melanoma): 9 µM
- TGI (MALME-3M melanoma): 21 µM
- GI50 (MCF7 breast): 3.26 µM
- TGI (MCF7 breast): 13.4 µM
- GI50 (MDA-MB-231 breast): 4.94 µM
- TGI (MDA-MB-231 breast): 17.1 µM
- GI50 (MDA-MB-435): 4.88 µM
- TGI (MDA-MB-435): 16.9 µM
- GI50 (MDA-MB-468 breast): 1.96 µM
- TGI (MDA-MB-468 breast): 4.88 µM
- GI50 (MOLT-4 leukemia): 3.17 µM
- TGI (MOLT-4 leukemia): 11.6 µM
- GI50 (NCI-H226 lung): 6.78 µM
